Measurements as given in US8063054B2, “Method of treatment of retinal ischemia with diazoxide” (Centre National de la Recherche Scientifique-CNRS, priority 2003, dated 2011).

What was measured:
Brown Norway rats [1] = experiment: Electroretinography (A and B wave amplitude) after retinal ischemia induced by elevation of the intraocular pressure; format: in vivo, rat
Protocol: Brown Norway rats from the scientific stock farm IFFA CREDO with a weight between 200 and 250 g were received and placed into individual cages in an air-conditioned room (temperature between 18 and 20° C.) with a light/dark cycle (12 h/12 h). During the study the animals had free access to food and water. Diazoxide was dissolved in a pure solution of dimethyl sulfoxide (DMSO). The solution obtained in this manner was diluted in sterile physiological serum to obtain a final ophthalmic solution at 0.01% active principle and 0.4% DMSO. The local administration was performed by instillation of 10 μl of the ophthalmic solution in the conjunctival cul-de-sac of the right eye 30 minutes after the end of the ischemia for the 1st group and 24 hours after the start of the reperfusion for the second group, […] After general anesthesia of the rats by intraperitoneal injection of sodium pentobarbital (60 mg/kg) the pupil was dilated by instillation of a drop of Mydriaticum®. The anterior chamber of the right eye, previously anesthetized by instillation of a drop of oxybuprocaine, was cannulated with a 30G needle connected to a reservoir containing a Hank's balanced salt solution. The retinal ischemia, lasting 40 min, was induced by elevation of the reservoir containing the saline solution to a height of 185 cm, permitting an intraocular pressure to 130 mm Hg to be produced. Ischemia was characterized by the disappearance of the blood flow in the retinal vessels, determined by direct opthalmoscopy of the ocular fundus. The rats were sacrificed after a period of reperfusion of 7 days. All the rats that developed a cataract or a hemorrhage were separated from the study. The electroretinography is performed under general anesthesia of the rats after dilation of the pupil by instillation of a drop of Mydriaticum®. The animal is previously adapted for 12 hours to darkness, then installed on its flank in a Faraday cage. The measuring electrode, constituted by a silver chloride ring (Ag/AgCl) is placed on the cornea of the right eye. The reference electrode constituted by a silver chloride needle is inserted in the ear of the animal. All these operations are performed under red light. The luminous stimuli are produced by a stroboscope placed at 25 cm from the eye in the visual axis. The flash of white light lasting 10 μs and with an intensity of 2.5·10^3 cd·s·m^−2 permits a maximal response of the retina. The recovery of the electrical signal, its amplification, transmission and display on a microcomputer are managed by a compact system. An integrated software permits the acquisition of the data as well as the determination of the amplitudes and of the latency times of the different waves of the electroretinogram (ERG). The ERG in the rat is composed of two waves; a corneo-negative wave or A wave reflecting the activity of the photoreceptors followed by a wave of positive polarity or B wave reflecting the activity of the Müller cells. The ERG's are recorded for all the groups at time t=0 before induction of ischemia, then at times 1, 2, 3 and 7 days after the start of the reperfusion. The pre-ischemic amplitudes of the A and B waves of the ERG are very variable from one group to the other, but also within one and the same group. Recovery is expressed by percentage of the initial value and the difference of effectiveness between each treatment is analyzed with the aid of the U test of Mann Whitney. The significance threshold is 0.02.

Brown Norway rats [2] = experiment: Histological analysis of the cytoarchitecture of the retina after retinal ischemia; format: in vivo, rat; details: 7 days after the end of the ischemia; treated 30 min or 24 hours after ischemia, compared to non-treated ischemia group
Protocol: Brown Norway rats from the scientific stock farm IFFA CREDO with a weight between 200 and 250 g were received and placed into individual cages in an air-conditioned room (temperature between 18 and 20° C.) with a light/dark cycle (12 h/12 h). During the study the animals had free access to food and water.
Diazoxide was dissolved in a pure solution of dimethyl sulfoxide (DMSO). The solution obtained in this manner was diluted in sterile physiological serum to obtain a final ophthalmic solution at 0.01% active principle and 0.4% DMSO.
The local administration was performed by instillation of 10 μl of the ophthalmic solution in the conjunctival cul-de-sac of the right eye 30 minutes after the end of the ischemia for the 1st group and 24 hours after the start of the reperfusion for the second group, then each day for 4 hours.
After general anesthesia of the rats by intraperitoneal injection of sodium pentobarbital (60 mg/kg) the pupil was dilated by instillation of a drop of Mydriaticum®. The anterior chamber of the right eye, previously anesthetized by instillation of a drop of oxybuprocaine, was cannulated with a 30G needle connected to a reservoir containing a Hank's balanced salt solution. […] Ischemia was characterized by the disappearance of the blood flow in the retinal vessels, determined by direct opthalmoscopy of the ocular fundus. […]

[3] = diazoxide 0.01% instilled 30 minutes after the start of the reperfusion and every day for 4 days, 3 days after the start of the reperfusion, ± standard deviation, n=7
[4] = diazoxide 0.01% instilled 30 minutes after the start of the reperfusion and every day for 4 days, 7 days after the end of the ischemia
[5] = diazoxide applied 24 hours after the start of the reperfusion, time 3 days
[6] = diazoxide applied 24 hours after the start of the reperfusion, time 7 days

reduction of the electrical activity of the retina (ERG profiles, FIG. 1C-1D) (Brown Norway rats [1]; 7 days after the end of the ischemia, groups treated 30 min or 24 hours after ischemia, compared to non-treated ischemia group): much less drastic
Compound: CC1=Nc2ccc(Cl)cc2S(=O)(=O)N1 [diazoxide, 7-chloro-3-methyl-2H-1,2,4-benzothiadiazine-1,1-dioxide]
amplitude of wave A of the electroretinogram, recovery in % of the initial values (Brown Norway rats [1]; [3]): 97.01±13%
amplitude of wave B of the electroretinogram, recovery in % of the initial values (Brown Norway rats [1]; [3]): 96.36±11%
amplitude of wave A of the electroretinogram, recovery in % of the initial values (Brown Norway rats [1]; [4]): 88.10±14%
amplitude of wave B of the electroretinogram, recovery in % of the initial values (Brown Norway rats [1]; [4]): 75±14%
amplitude of wave A of the electroretinogram, recovery in % of the initial values (Brown Norway rats [1]; [5]): 84.26±10%
amplitude of wave B of the electroretinogram, recovery in % of the initial values (Brown Norway rats [1]; [5]): 88.17±14%
amplitude of wave A of the electroretinogram, recovery in % of the initial values (Brown Norway rats [1]; [6]): 87.59±16%
amplitude of wave B of the electroretinogram, recovery in % of the initial values (Brown Norway rats [1]; [6]): 70.59±16%
effect on the recovery of the retinal function (statistical analysis, Mann Whitney U test) (Brown Norway rats [1]; instilled 30 min or 24 hours after the end of the ischemia, compared to the non-treated group caused to have ischemia): highly significant effect
preservation of the layers of the ganglionic cells and the photoreceptor cells (FIGS. 3C and 3D) (Brown Norway rats [2]): better presservation
thickness of the internal plexiform and nuclear layers of the retina (FIGS. 3C and 3D) (Brown Norway rats [2]): less severe reduction
